From article PMC6949113, “Preclinical evaluation of AT-527, a novel guanosine nucleotide prodrug with potent, pan-genotypic activity against hepatitis C virus” (PLoS ONE, 2020)
Several values for one entry are separate records, joined by “and”; a condition that tells them apart may be missing. Equal values may be shown once. Marks after values point to notes of the source that are not given here.

Assays:
[1] = Intracellular metabolism in mouse hepatocytes; type: in vitro ADME, mouse (CD1)
Experimental: (§1) Hepatocytes. […] Cryopreserved male mouse (CD1), and fresh male Beagle dog and male cynomolgus monkey hepatocytes were obtained from BioreclamationIVT (Baltimore, MD) and were similarly plated with Matrigel in 6- or 24-well plates and maintained overnight in InVitroGRO™HI medium with Torpedo™ antibiotic (BioreclamationIVT). The protocol described above for measuring AT-511 and its metabolites in Huh-7 cells was repeated with the five different hepatocytes. Untreated cells were collected at 24 h, and the protein content of the cell lysates were determined using a bicinchoninic acid protein assay kit to assess the number of cells in each incubation. Separately, plated human hepatocytes were incubated for 6 h with 100 μM AT-511, followed by washout periods of 0, 2, 6, 18 and 30 h.
(§2) S3 Protocol. LC-MS/MS analysis of AT-511 and metabolites in cultured cells. The supernatant extracts of each hepatocyte and Huh-7 cell incubation were separately analyzed by four different LC-MS/MS methods for quantitation of phosphoramidates, nucleosides, monophosphates, and triphosphates (methods 1, 2, 3 and 4, respectively), using synthetic reference standards of actually and potentially present compounds and using structurally related analogs as internal standards. Briefly, a Luna PFP (2), 5 µm, 100 x 4.6 mm column and an AB Sciex API-6500 mass spectrometer (ESI positive ion, MRM mode) were used for methods 1-3 and an XBridge Oligonucleotide, BEH C18, 2.5 µm, 50 x 2.1 mm column and a Thermo QE Plus mass spectrometer (electrospray, negative ion mode) were used for method 4. For methods 1 and 2, mobile phases A (10 mM ammonium acetate in water) and B (acetonitrile:methanol, 1:1, v/v) were used to elute samples (5 µL) at 1 mL/min with 15% B for 1.5 min followed by a linear gradient to 75% B over 1 min (method 1) or with 54% B for 1.3 min followed by a linear gradient to 90% B over 1.2 min. Method 3 was the same except mobile phase A was 0.3% acetic acid in water, […] and samples were eluted with 3% B for 3 min followed by a linear gradient to 55% B over 1.2 min. For method 4, mobile phase A (3 mM ammonium formate with 10 mM dimethylhexylamine (DMHA) in water) and mobile phase B (3 mM ammonium formate with 10 mM DMHA in acetonitrile:water, 1:1, v/v) were used to elute samples at 0.4 mL/min with 0% B for 1.5 min followed by a linear gradient to 100% B over 2 min and ending with an isocratic elution for 0.5 min at 100% B.

[2] = Intracellular metabolism in dog hepatocytes; type: in vitro ADME, Beagle dog
Experimental: as §1, §2

[3] = AT-9010 half-life in human hepatocytes (washout); type: in vitro ADME; conditions: both sexes, plated cryopreserved human hepatocytes, 100 μM AT-511 for 6 h, washout 30 h
Experimental: as §1
S3 Protocol. LC-MS/MS analysis of AT-511 and metabolites in cultured cells. The supernatant extracts of each hepatocyte and Huh-7 cell incubation were separately analyzed by four different LC-MS/MS methods for quantitation of phosphoramidates, nucleosides, monophosphates, and triphosphates (methods 1, 2, 3 and 4, respectively), using synthetic reference standards of actually and potentially present compounds and using structurally related analogs as internal standards. […]

[4] = Monkey PK study, liver and heart tissue levels; type: in vivo, cynomolgus monkey; conditions: monkey; for Mean Concentration at 4 hr Postdose, Heart: footnoted values extrapolated below LLOQ
From the text: Monkey PK study. Male non-naïve cynomolgus monkeys were obtained from Hainan Jingang Laboratory Animal Co., Ltd. (Hainan, China), group housed during the 5-day acclimation period or individually housed during the study in stainless steel mesh cages, provided ad libitum access to RO water, fed twice daily (~120 g Certified Monkey Diet daily; Beijing Vital Keao Feed Co., Ltd., Beijing, China) and given daily treats of fresh fruit. Additional environmental enrichment included classical music and cartoons. Three groups of 5 monkeys each were administered 30, 100 or 300 mg/kg AT-527 as a powder filled in empty porcine hard gelatin capsules (size 0). The monkeys were fasted overnight prior to dosing and fed 4 h after dosing. Three dosages were selected to provide assessments of dose proportionality, the top two representing potential doses for a repeated oral dose toxicity study in monkeys, and the lowest predicted to be more therapeutically relevant. A pill gun was used to place the capsule beyond the root of the animals’ tongues and their mouths were held loosely closed for approximately 30 sec to allow them to move the jaw and swallow the capsule. Immediately following capsule administration, 20 mL of water was given by mouth and then the mouth was opened to ensure the capsule was swallowed. Blood samples (~0.6 mL) were collected up to 72 h from three animals per dose group, and up to 4 h from the remaining two animals in each group, at the same time points described for rats. […] Blood samples were collected with a syringe from a peripheral blood vessel from restrained, non-sedated animals, immediately transferred to pre-chilled tubes containing ~1 mg K2EDTA•2H20 and 20 μL of 5 mM dichlorvos solution, mixed and placed on ice until plasma was prepared by centrifugation as described for rats. Immediately after centrifugation, plasma samples were extracted with 4 volumes ISS2, and the supernatants were clarified by centrifugation (12,000 rpm, 10 min, 4°C) and stored at ≤ -60°C until analyzed by LC-MS/MS as described below. After the 4-hr blood collection, two monkeys per dose group were anesthetized with intravenous injection of pentobarbital sodium (60 mg/kg) and then euthanized as described for rats. […] All analytes were quantitated by LC-MS/MS as described below.
For the analysis of AT-9010 in rat tissue homogenate supernatant, aliquots were diluted 1:2 with water and injected onto an Agilent Zorbax Extend C18 5 μm, 2.1 × 50 mm column and a Sciex API 4000 mass spectrometer (ESI positive ion, MRM mode). Mobile phases A (0.001% ammonia and 0.18 mM DBAA in water (1:1, v/v) and B (10 mM dimethylhexylamine (DMHA) and 3 mM AA in 50% ACN in water) were used to elute samples (60 μL) at 0.7 mL/min with 2% B for 0.8 min followed by a linear gradient to 30% B over 0.4 min, isocratic elution at 30% B for 0.4 min, a linear gradient to 95% B over 0.4 min, and ending with 95% B for 0.4 min. The analysis of AT-9010 in monkey tissue homogenate supernatant was the same except the sample injection volume was 20 μL. Attempts to measure tissue levels of other potentially formed TPs, including 2,6-diaminopurine-2’-F-2’-C-methylribosyl-5’-triphosphate and 2-amino-6-methylaminopurine-2’-F-2’-C-methylribosyl-5’-triphosphate (M2-TP), also used this method.
For the analysis of M2 and M3 in monkey tissue homogenate supernatant, aliquots were diluted 1:3 with water and injected onto an Acuity HSS T3 1.8 μm, 2.1 × 50 mm column and a Sciex API 6500 mass spectrometer (ESI positive ion, MRM mode). Mobile phases A (0.3% FA and 10 mM AA in water and B (0.3% FA and 10 mM AA in 95% ACN in water) were used to elute samples (1 μL) at 0.6 mL/min with 0% B for 0.4 min followed by linear gradients to 30% B over 0.5 min and to 95% B over 0.2 min, ending with isocratic elution at 95% B for 0.4 min.

[5] = Intracellular metabolism in human hepatocytes; type: in vitro ADME; conditions: human hepatocytes
Experimental: as §1, §2

Structure (SMILES)	AUC0-24, intracellular ([1]; 10 μM AT-511)	Cmax, intracellular ([1]; 10 μM AT-511, 0-24 h)	AUC0-24, intracellular ([2]; 10 μM AT-511)	Cmax, intracellular ([2]; 10 μM AT-511, 0-24 h)	half-life at 100 μM [3]	fold higher mean liver concentration than parent phosphoramidate ([4]; 30 mg/kg, 4 h)	Mean Concentration at 4 hr Postdose, Liver ([4]; AT-527 30 mg/kg oral)	Liver/Heart Ratio ([4]; AT-527 30 mg/kg oral, 4 h)	Mean Concentration at 4 hr Postdose, Heart ([4]; AT-527 30 mg/kg oral)	Mean Concentration at 4 hr Postdose, Liver ([4]; AT-527 100 mg/kg oral)	Liver/Heart Ratio ([4]; AT-527 100 mg/kg oral, 4 h)	Mean Concentration at 4 hr Postdose, Heart ([4]; AT-527 100 mg/kg oral)	Mean Concentration at 4 hr Postdose, Liver ([4]; AT-527 300 mg/kg oral)	Mean Concentration at 4 hr Postdose, Heart ([4]; AT-527 300 mg/kg oral)	AUC0-24, intracellular ([5]; 10 μM AT-511)	Cmax, intracellular ([5]; 10 μM AT-511, 0-24 h)	intracellular levels of nucleoside metabolites ([1]; low to undetectable)	intracellular levels of nucleoside metabolites ([2]; low to undetectable)	Liver/Heart Ratio ([4]; AT-527 300 mg/kg oral, 4 h)	intracellular levels of nucleoside metabolites ([5]; low to undetectable)
C[C@@]1(F)[C@H](O)[C@@H](COP(=O)(O)OP(=O)(O)OP(=O)(O)O)O[C@H]1n1cnc2c(=O)[nH]c(N)nc21 [AT-9010]	1177 pmol*h/10^6 cells	85.4 ± 0.4 pmol/10^6 cells	229 pmol*h/10^6 cells	15.4 ± 6.6 pmol/10^6 cells	600 min	34 fold	545 ± 349 pmol/g and 545 pmol/g	11^b	51.2^b pmol/g	1890 ± 519 pmol/g and 1890 pmol/g	31^b	61.8^b pmol/g	968 pmol/g	55.3^b pmol/g	1363 pmol*h/10^6 cells	69.2 ± 8.8 pmol/10^6 cells	–	–	–	–
C[C@@]1(F)[C@H](O)[C@@H](CO)O[C@H]1n1cnc2c(=O)[nH]c(N)nc21 [AT-273]	–	–	–	–	–	–	267 pmol/g	3.0	88.5 pmol/g	672 pmol/g	2.9	229 pmol/g	939 pmol/g	444 pmol/g	–	–	< 10 pmol/10^6 cells	< 10 pmol/10^6 cells	2.1	< 10 pmol/10^6 cells
